Measurements reported in patent publication US20230010299A1, “HETEROCYCLIC TRPML1 AGONISTS” (LIBRA THERAPEUTICS, INC., priority 2019, published 2023).

Columns and labels:
TRPML1 = target: T1, TRPML1 (Homo sapiens, UniProt Q9GZU1); assay: TRPML1 automated patch-clamp (QPatch 16X); type: cell-based; settings: HEK T-REx/GcaMP6f/TRPML1 cells, current with compound/current in vehicle, extracellular pH 4.6
T1 construct: expressed in transfected cells
Description: TRPML1—Automated Patch-Clamp
HEK T-REx/GcaMP6f/TRPML1 cells were cultured in DMEM High Glucose (Lonza BioWhittaker cat. BE12-604F/U1; 500 mL) supplemented with Fetal Bovine Serum TET-FREE (Euroclone cat. EC S0182L; 50 mL, Penicillin-Streptomycin (BioWhittaker, cat. DE17-602E; 5 mL of 100× Solution), G418 (Sigma, cat. G8168; 0.25 mg/ml) and Zeocyn (InvivoGen, cat. ant-zn-1; 50 μg/ml).
HEK T-REx/GcaMP6f/TRPML1 cells were seeded 48 or 72 hours before experiment, at a concentration of 8*10^6/4*10^6 cells onto a T225 flask. Just before the experiments, cells were washed twice with D-PBS w/o Ca^2+/Mg^2+ (Euroclone cat. ECB4004L) and detached from the flask with trypsin-EDTA (Sigma cat. T4174; diluted 1/10). Cells were then re-suspended in the suspension solution: 25 mL EX-CELL ACF CHO medium(Sigma cat. C5467); 0.625 mL HEPES (Sigma cat. H0887); 0.25 mL of 100× Penicillin/Streptomycin (Euroclone cat. ECB3001D), 0.1 mL of Soybean Trypsin Inhibitor 10 mg/mL (Sigma cat. T6522) and placed on the QPatch 16X.
Dilution from stock were prepared just before the experiments in the extracellular solution (0.25% final DMSO concentration). DMSO solution was obtained from AppliChem (cat. A3672)
Patch Clamp Solutions: • Intracellular solution (mM): 120 CsMeSO3, 4 NaCl, 2 MgCl2, 10 EGTA, 20 HEPES, 2 Mg-ATP (pH 7.2 with CsOH). • Extracellular solution (mM): 140 NaGluconate, 5 KCl, 1 MgCl2, 2 CaCl2), 10 Glucose, 10 MES (pH 4.6 with HCl).
Patch Clamp Analysis—QPatch 16X
For the voltage clamp experiments on TRPML1, data were sampled at 5 KHz. After establishment of the seal and the passage in the whole cell configuration, the cells were held at −20 mV and the TRPML1 current was evoked using the voltage protocol illustrated in FIG. 2, applied every 5 sec. (50 ms at −20 mV; 20 ms at −120 mV, 1000 ms ramp from −120 to […]; 20 ms at +40 mV, and back to −20 mV); in the absence (vehicle period, i.e. 0.25% DMSO) and in the presence of increasing concentrations (3) of the compound under investigation.
Agonists: For data collection, the Sophion proprietary software was used and the analysis was performed off-line using Excel and GraphPad Prism (V 8.00). Results are reported in Table 6, expressed as TRPML1 current fold increase evoked by the compound under investigation (i.e. current in the presence of the compound/current in vehicle).

[1] = test system: autophagy reporter Rosella (LC3 tag) in HeK293 cell line; assay: Autophagy assay (reporter Rosella, imaging); type: cell-based; settings: Homo sapiens; HeK293 cells stably expressing reporter Rosella; 18 hours incubation; reference Torin-1 1 μM as max signal; read-out: Secondary Assays Autophagy qAC50
Description: Buffers and Reagents • Tyrode's buffer with 2 mM Ca^2+ in-house solution (130 mM NaCl, 5 mM KCl, 2 mM CaCl2), 1 mM MgCl2, 5 mM NaHCO3, 20 mM HEPES in water at pH 7.4; sterile filtered) • DMSO (Sigma) • Bis-benzimide H 33342 trihydrochloride (Hoechst 33342; Sigma-Aldrich) • Reference molecule (agonist): Torin-1, (#4247, Tocris) stock 1.2 mM in DMSO, stored at −20° C.
Reporter of Autophagy and Cell Line
Reporter Rosella: a fluorescent-based chimera constitutes by two fluorescent proteins, Green and Red variants, acting as a bimodal indicator of pH. […] The reporter is fused to sequence for autophagosome localization (LC3 tag).
The reporter Rosella have been stably expressed in HeK293 cell line and used as read-out.
Experiments have been performed in 384 MTP poly-lysine coated well format. Cells have been seeded in 384-w at a density of 6000 cells/well in 25 μl/well complete growth medium without antibiotics. Twenty-four hours later, cells have been treated with compounds and incubated for further 18 hours. Then the cells have been imaged and assayed for the response to various compounds using the reporter for autophagy expressed in the cells as readout.
The experiments were performed in a 384-well format according to the following procedure: • 24 h after seeding, cells were incubated with compounds at the desired concentration, and with the reference molecule (agonist) Torin-1 at a top concentration of 1 μM (max signal), for 18 hours at 37° C. and 5% CO2. The final percentage of DMSO was 0.3% in all the conditions. • Then the culture medium was carefully removed to avoid cells detachment and to discard red phenol into the medium and that can interfere with the measurements. • Staining of the nuclei was obtained by incubating the cells with 8 μM/well of Hoechst 3342 in standard Tyrode's buffer for 20 min at RT • Then the cells were carefully washed two times with standard Tyrode's buffer • Finally, the samples were acquired by recording three fluorescence emission channels (green, red and blue) at 20× magnification and with at least 3-4 fields of view per well in an Operetta CLS microscope (PerkinElmer). • Image analysis was performed by using Harmony software (PerkinElmer). The image analysis involved the following steps: flat-field illumination correction, nuclei segmentation, cell segmentations and identification of vesicles/granules within the cytosol compartments and representing the autophagy vesicles. Measurements of signal intensity ratio (Green to Red) and number of autophagy vesicles per cells were used to obtain information on the effects of compounds on the autophagy flux. • Data from image analysis measurements were finally loaded and analyzed for normalization and fitting procedures in Genedata Screener© software.

T1 sequence (Q9GZU1 whole entry): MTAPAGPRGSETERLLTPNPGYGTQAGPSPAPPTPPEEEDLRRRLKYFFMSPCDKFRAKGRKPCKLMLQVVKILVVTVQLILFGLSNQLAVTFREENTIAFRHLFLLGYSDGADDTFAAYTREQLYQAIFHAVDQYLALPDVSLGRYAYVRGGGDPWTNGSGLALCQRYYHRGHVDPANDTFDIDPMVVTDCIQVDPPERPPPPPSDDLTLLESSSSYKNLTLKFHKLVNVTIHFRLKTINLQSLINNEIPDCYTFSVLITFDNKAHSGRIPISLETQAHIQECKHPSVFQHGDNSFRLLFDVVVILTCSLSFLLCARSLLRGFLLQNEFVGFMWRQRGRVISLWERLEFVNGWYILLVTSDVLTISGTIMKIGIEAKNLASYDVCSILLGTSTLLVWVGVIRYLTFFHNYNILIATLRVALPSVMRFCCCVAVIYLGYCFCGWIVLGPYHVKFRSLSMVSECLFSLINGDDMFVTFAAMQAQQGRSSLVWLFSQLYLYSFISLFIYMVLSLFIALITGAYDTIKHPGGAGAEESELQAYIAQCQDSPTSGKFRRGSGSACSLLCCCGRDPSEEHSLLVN

CN(C)S(=O)(=O)c1ccc(S(=O)(=O)Nc2ccccc2N2CCC(C(=O)OC(C)(C)C)CC2)cc1 [Example 76, f-butyl 1-{2-[4-(dimethylsulfamoyl)benzenesulfonamido]phenyl}piperidine-4-carboxylate]
Qpatch Assay TRPML1 agonism Current fold increase Mean ± SEM (n) (TRPML1; 0.3 μM compound): 35.6 ± 26.7 (3)
Qpatch Assay TRPML1 agonism Current fold increase Mean ± SEM (n) (TRPML1; 3.0 μM compound): 38.5 ± 24.8 (2)
Qpatch Assay TRPML1 agonism Current fold increase Mean ± SEM (n) (TRPML1; 30 μM compound): 52.7 ± 36.3 (2)
EC50 [1]: 0.059 µM

CN(C)S(=O)(=O)c1ccc(S(=O)(=O)Nc2ccccc2N2CCC(Oc3cnccn3)CC2)cc1 [Example 77, N1,N1-dimethyl-N4-{2-[4-(pyrazin-2-yloxy)piperidin-1-yl]phenyl} benzene-1,4-disulfonamide]
Qpatch Assay TRPML1 agonism Current fold increase Mean ± SEM (n) (TRPML1; 0.3 μM compound): 74.4 ± 13.8 (3)
Qpatch Assay TRPML1 agonism Current fold increase Mean ± SEM (n) (TRPML1; 3.0 μM compound): 167 ± 10.7 (3)
Qpatch Assay TRPML1 agonism Current fold increase Mean ± SEM (n) (TRPML1; 30 μM compound): 168 ± 9.8 (3)
EC50 [1]: 0.25 µM

CN(C)S(=O)(=O)c1ccc(S(=O)(=O)Nc2ccccc2N2CCCCC2)cc1 [Example 6, N1,N1-dimethyl-N4-[2-(piperidin-1-yl)phenyl]benzene-1,4-disulfonamide]
Qpatch Assay TRPML1 agonism Current fold increase Mean ± SEM (n) (TRPML1; 0.3 μM compound): 1.0 ± 0.77 (3)
Qpatch Assay TRPML1 agonism Current fold increase Mean ± SEM (n) (TRPML1; 3.0 μM compound): 32.7 ± 8.9 (3)
EC50 [1]: 4.4 µM

CN(C)S(=O)(=O)c1ccc(S(=O)(=O)NC2CCCCC2N2CCC(Oc3ccccc3)CC2)cc1 (racemic) [Example 57, N1,N1-dimethyl-N4-[2-(4-phenoxypiperidin-1-yl)cyclohexyl]benzene-1,4-disulfonamide]
Qpatch Assay TRPML1 agonism Current fold increase Mean ± SEM (n) (TRPML1; 0.3 μM compound): 0.39 ± 0.14 (2)
Qpatch Assay TRPML1 agonism Current fold increase Mean ± SEM (n) (TRPML1; 3.0 μM compound): 0.86 ± 0.68 (2)
Qpatch Assay TRPML1 agonism Current fold increase Mean ± SEM (n) (TRPML1; 30 μM compound): 4.3 ± 2.2 (2)
EC50 [1]: 1.8 µM

CN(C)S(=O)(=O)c1ccc(S(=O)(=O)Nc2ccccc2N2CCC(Oc3ccccn3)CC2)cc1 [Example 75, N1,N1-dimethyl-N4-{2-[4-(pyridin-2-yloxy)piperidin-1-yl]phenyl}benzene-1,4-disulfonamide]
Qpatch Assay TRPML1 agonism Current fold increase Mean ± SEM (n) (TRPML1; 0.3 μM compound): 310 ± 147 (4)
Qpatch Assay TRPML1 agonism Current fold increase Mean ± SEM (n) (TRPML1; 3.0 μM compound): 435 ± 172 (4)
Qpatch Assay TRPML1 agonism Current fold increase Mean ± SEM (n) (TRPML1; 30 μM compound): 603 ± 155 (3)
EC50 [1]: 0.17 µM

CN(C)S(=O)(=O)c1ccc(S(=O)(=O)Nc2ccccc2N2CCN(C(=O)OC(C)(C)C)CC2)cc1 [Example 13, tert-butyl 4-{2-[4-(dimethylsulfamoyl)benzenesulfonamido]phenyl}piperazine-1-carboxylate]
Qpatch Assay TRPML1 agonism Current fold increase Mean ± SEM (n) (TRPML1; 0.3 μM compound): 13.5 ± 4.8 (4)
Qpatch Assay TRPML1 agonism Current fold increase Mean ± SEM (n) (TRPML1; 3.0 μM compound): 208 ± 15.7 (4)
Qpatch Assay TRPML1 agonism Current fold increase Mean ± SEM (n) (TRPML1; 30 μM compound): 244 ± 27.6 (4)
EC50 [1]: 0.52 µM
